Laboratory results reported in patent publication US8877748B2, “Heterocyclic fused anthraquinone derivatives, manufacturing method and pharmaceutical composition using thereof” (National Defense Medical Center, priority 2012, dated 2014).

Tests used:
A549/ATCC = experiment: NCI one-dose screening, non-small cell lung cancer A549/ATCC; format: cell-based, human; conditions: 10 μM
MDA, -MB-435 = experiment: NCI one-dose screening, breast cancer MDA, -MB-435; format: cell-based, human; conditions: 10 μM; listed under Melanoma
SF-268 = experiment: NCI one-dose screening, CNS cancer SF-268; format: cell-based, human; conditions: 10 μM
BT-549 = experiment: NCI one-dose screening, breast cancer BT-549; format: cell-based, human; conditions: 10 μM
NCl/ADR-RES = experiment: NCI one-dose screening, breast cancer NCl/ADR-RES; format: cell-based, human; conditions: 10 μM; listed under Ovarian cancer
OVCAR-5 = experiment: NCI one-dose screening, ovarian cancer OVCAR-5; format: cell-based, human; conditions: 10 μM
RXF, 393 = experiment: NCI one-dose screening, renal cancer RXF, 393; format: cell-based, human; conditions: 10 μM
NCI-H522 = experiment: NCI one-dose screening, non-small cell lung cancer NCI-H522; format: cell-based, human; conditions: 10 μM
786-O = experiment: NCI one-dose screening, renal cancer 786-O; format: cell-based, human; conditions: 10 μM
TK-10 = experiment: NCI one-dose screening, renal cancer TK-10; format: cell-based, human; conditions: 10 μM
SK-MEL-5 = experiment: NCI one-dose screening, melanoma SK-MEL-5; format: cell-based, human; conditions: 10 μM
UACC-62 = experiment: NCI one-dose screening, melanoma UACC-62; format: cell-based, human; conditions: 10 μM
MDA-MB-468 = experiment: NCI one-dose screening, breast cancer MDA-MB-468; format: cell-based, human; conditions: 10 μM
EKVX = experiment: NCI one-dose screening, non-small cell lung cancer EKVX; format: cell-based, human; conditions: 10 μM
HCT-15 = experiment: NCI one-dose screening, colon cancer HCT-15; format: cell-based, human; conditions: 10 μM
PRMI-8226 cell line = experiment: NCI one-dose screening, leukemia PRMI-8226; format: cell-based, human; conditions: 10 μM
human tumor cell lines = experiment: NCI one-dose screening, Mean / Delta / Range of growth percent over all tested cell lines; format: cell-based; conditions: 10 μM
UACC-257 = experiment: NCI one-dose screening, melanoma UACC-257; format: cell-based, human; conditions: 10 μM
HCC-2998 = experiment: NCI one-dose screening, colon cancer HCC-2998; format: cell-based, human; conditions: 10 μM
UO-31 = experiment: NCI one-dose screening, renal cancer UO-31; format: cell-based, human; conditions: 10 μM
SNB-75 = experiment: NCI one-dose screening, CNS cancer SNB-75; format: cell-based, human; conditions: 10 μM
PC-3 = experiment: NCI one-dose screening, prostate cancer PC-3; format: cell-based, human; conditions: 10 μM
LOX IMVI = experiment: NCI one-dose screening, melanoma LOX IMVI; format: cell-based, human; conditions: 10 μM
KM12 = experiment: NCI one-dose screening, colon cancer KM12; format: cell-based, human; conditions: 10 μM
NCI-H460 = experiment: NCI one-dose screening, non-small cell lung cancer NCI-H460; format: cell-based, human; conditions: 10 μM
HT29 = experiment: NCI one-dose screening, colon cancer HT29; format: cell-based, human; conditions: 10 μM
OVCAR-3 = experiment: NCI one-dose screening, ovarian cancer OVCAR-3; format: cell-based, human; conditions: 10 μM
NCI-H23 = experiment: NCI one-dose screening, non-small cell lung cancer NCI-H23; format: cell-based, human; conditions: 10 μM
HOP-92 = experiment: NCI one-dose screening, non-small cell lung cancer HOP-92; format: cell-based, human; conditions: 10 μM
SF-539 = experiment: NCI one-dose screening, CNS cancer SF-539; format: cell-based, human; conditions: 10 μM
CAKI-1 = experiment: NCI one-dose screening, renal cancer CAKI-1; format: cell-based, human; conditions: 10 μM
SK-OV-3 = experiment: NCI one-dose screening, ovarian cancer SK-OV-3; format: cell-based, human; conditions: 10 μM
SF-295 = experiment: NCI one-dose screening, CNS cancer SF-295; format: cell-based, human; conditions: 10 μM
IGROV1 = experiment: NCI one-dose screening, ovarian cancer IGROV1; format: cell-based, human; conditions: 10 μM
SN12C = experiment: NCI one-dose screening, renal cancer SN12C; format: cell-based, human; conditions: 10 μM
HOP-62 = experiment: NCI one-dose screening, non-small cell lung cancer HOP-62; format: cell-based, human; conditions: 10 μM
HL-60, TB = experiment: NCI one-dose screening, leukemia HL-60, TB; format: cell-based, human; conditions: 10 μM
DU145 = experiment: NCI one-dose screening, prostate cancer DU145; format: cell-based, human; conditions: 10 μM
[1] = NCI one-dose screening, renal cancer A489; format: cell-based, human; conditions: 10 μM
SR = experiment: NCI one-dose screening, leukemia SR; format: cell-based, human; conditions: 10 μM
T-47D = experiment: NCI one-dose screening, breast cancer T-47D; format: cell-based, human; conditions: 10 μM
COLO 205 = experiment: NCI one-dose screening, colon cancer COLO 205; format: cell-based, human; conditions: 10 μM
MCF7 = experiment: NCI one-dose screening, breast cancer MCF7; format: cell-based, human; conditions: 10 μM
M14 = experiment: NCI one-dose screening, melanoma M14; format: cell-based, human; conditions: 10 μM
ACHN = experiment: NCI one-dose screening, renal cancer ACHN; format: cell-based, human; conditions: 10 μM
HCT-116 = experiment: NCI one-dose screening, colon cancer HCT-116; format: cell-based, human; conditions: 10 μM
SK-MEL-2 = experiment: NCI one-dose screening, melanoma SK-MEL-2; format: cell-based, human; conditions: 10 μM
HS 578-T = experiment: NCI one-dose screening, breast cancer HS 578-T; format: cell-based, human; conditions: 10 μM; Breast cancer
SNB-19 = experiment: NCI one-dose screening, CNS cancer SNB-19; format: cell-based, human; conditions: 10 μM
MOLT-4 = experiment: NCI one-dose screening, leukemia MOLT-4; format: cell-based, human; conditions: 10 μM
OVCAR-8 = experiment: NCI one-dose screening, ovarian cancer OVCAR-8; format: cell-based, human; conditions: 10 μM
NCI-H226 = experiment: NCI one-dose screening, non-small cell lung cancer NCI-H226; format: cell-based, human; conditions: 10 μM
K562cell line = experiment: NCI one-dose screening, leukemia K562; format: cell-based, human; conditions: 10 μM
U251 = experiment: NCI one-dose screening, CNS cancer U251; format: cell-based, human; conditions: 10 μM
MALME-3M = experiment: NCI one-dose screening, melanoma MALME-3M; format: cell-based, human; conditions: 10 μM
MDA-MB-231/ATCC = experiment: NCI one-dose screening, breast cancer MDA-MB-231/ATCC; format: cell-based, human; conditions: 10 μM
[2] = tested on: PC-3 prostate cancer cell line; experiment: SRB assay cell viability, PC-3 prostate cancer cell line; format: cell-based, human; conditions: PC-3 prostate cancer cell line, Table II prints no unit, μM printed, read-out: SRB assay: 50% inhibition of cancer cell proliferation of sample concentration (IC50) of PC-3 prostate cancer cell line
SK-MEL-28 = experiment: NCI one-dose screening, melanoma SK-MEL-28; format: cell-based, human; conditions: 10 μM

O=C1c2ccccc2C(=O)c2c1cc(Sc1ccccc1Br)c1nsnc21 [C27, 4-(2-bromo-phenylthio)anthra[2,1-c] [1,2,5]thiadiazol oxazole-6,11-dione]
Growth Percent A549/ATCC (A549/ATCC): 95.37%
Growth Percent MDA-MB-435 (MDA, -MB-435): −72.95%
Growth Percent SF-268 (SF-268): −5.11%
Growth Percent BT-549 (BT-549): 52.19%
Growth Percent NCI/ADR-RES (NCl/ADR-RES): −29.94%
Growth Percent OVCAR-5 (OVCAR-5): 120.52%
Growth Percent RXF 393 (RXF, 393): −8.53%
Growth Percent NCI-H522 (NCI-H522): 30.77%
Growth Percent 786-0 (786-O): −6.19%
Growth Percent TK-10 (TK-10): 76.52%
Growth Percent SK-MEL-5 (SK-MEL-5): 46.26%
Growth Percent UACC-62 (UACC-62): 39.58%
Growth Percent MDA-MB-468 (MDA-MB-468): −79.88%
Growth Percent EKVX (EKVX): 77.74%
Growth Percent HCT-15 (HCT-15): 39.74%
Growth Percent RPMI-8226 (PRMI-8226 cell line): 9.40%
Growth Percent Delta (human tumor cell lines; delta over all cell lines): 109.49%
Growth Percent Mean (human tumor cell lines; mean over all cell lines): 29.61%
Growth Percent Range (human tumor cell lines; range over all cell lines): 200.40%
Growth Percent UACC-257 (UACC-257): 4.75%
Growth Percent HCC-2998 (HCC-2998): 78.44%
Growth Percent UO-31 (UO-31): 56.15%
Growth Percent SNB-75 (SNB-75): 47.20%
Growth Percent PC-3 (PC-3): 4.23%
Growth Percent LOX IMVI (LOX IMVI): −15.34%
Growth Percent KM12 (KM12): 57.85%
Growth Percent NCI-H460 (NCI-H460): 58.24%
Growth Percent HT29 (HT29): 96.46%
Growth Percent OVCAR-3 (OVCAR-3): −65.85%
Growth Percent NCI-H23 (NCI-H23): 18.02%
Growth Percent HOP-92 (HOP-92): 37.57%
Growth Percent SF-539 (SF-539): −5.66%
Growth Percent CAKI-1 (CAKI-1): 29.67%
Growth Percent SK-OV-3 (SK-OV-3): 66.68%
Growth Percent SF-295 (SF-295): 100.07%
Growth Percent IGROV1 (IGROV1): 27.94%
Growth Percent SN12C (SN12C): 22.56%
Growth Percent HOP-62 (HOP-62): 4.88%
Growth Percent HL-60(TB) (HL-60, TB): −43.96%
Growth Percent DU145 (DU145): 50.57%
Growth Percent A498 [1]: 24.25%
Growth Percent SR (SR): 2.94%
Growth Percent T-47D (T-47D): −33.05%
Growth Percent COLO 205 (COLO 205): 97.36%
Growth Percent MCF7 (MCF7): −6.39%
Growth Percent M14 (M14): 59.45%
Growth Percent ACHN (ACHN): 25.50%
Growth Percent HCT-116 (HCT-116): 16.62%
Growth Percent SK-MEL-2 (SK-MEL-2): 35.02%
Growth Percent HS 578T (HS 578-T): 54.25%
Growth Percent SNB-19 (SNB-19): 71.38%
Growth Percent MOLT-4 (MOLT-4): 29.67%
Growth Percent OVCAR-8 (OVCAR-8): 2.47%
Growth Percent NCI-H226 (NCI-H226): 92.07%
Growth Percent K562 (K562cell line): 29.66%
Growth Percent U251 (U251): 11.49%
Growth Percent MALME-3M (MALME-3M): 35.27%
Growth Percent MDA-MB-231/ATCC (MDA-MB-231/ATCC): 16.85%
IC50 [2]: 5.76 µM
Growth Percent SK-MEL-28 (SK-MEL-28): 64.65%
